Source: patent US10266537B2, “3-acetylenyl-pyrazole-pyrimidine derivative, and preparation method therefor and uses thereof” (Si Chuan University, priority 2015, dated 2019)
Blank lines part the entries; values can stand above or below the compound they belong to.

Assays:
U87 = test: Cell proliferation inhibition assay (MTT); type: cell-based; details: Homo sapiens, U-87 MG, 72 hours, read-out: Proliferation inhibitory activity IC50
ZIPK(h) = ZIPK(h) (Homo sapiens (Human), UniProt O43293); test: Kinase inhibition assay (KinaseProfiler, 33P-ATP); type: biochemical; details: read-out: The percentage of the remaining active protein
IRAK4(h) = IRAK4(h) (Homo sapiens (Human), UniProt Q9NWZ3); test: Kinase inhibition assay (KinaseProfiler, 33P-ATP); type: biochemical; details: read-out: The percentage of the remaining active protein
TGFBR1(h) = TGFBR1(h) (Homo sapiens (Human), UniProt P36897); test: Kinase inhibition assay (KinaseProfiler, 33P-ATP); type: biochemical; details: read-out: The percentage of the remaining active protein
BrSK2(h) = BrSK2(h) (Homo sapiens (Human), UniProt Q8IWQ3); test: Kinase inhibition assay (KinaseProfiler, 33P-ATP); type: biochemical; details: read-out: The percentage of the remaining active protein
Abl (H396P)(h) = Abl (H396P)(h) (Homo sapiens (Human), UniProt P00519, H396P); test: Kinase inhibition assay (KinaseProfiler, 33P-ATP); type: biochemical; details: read-out: The percentage of the remaining active protein
CaMKIIδ(h) = CaMKIIδ(h) (Homo sapiens (Human), UniProt Q13557); test: Kinase inhibition assay (KinaseProfiler, 33P-ATP); type: biochemical; details: read-out: The percentage of the remaining active protein
Tie2(R849W)(h) = Tie2(R849W)(h) (Homo sapiens (Human), UniProt Q02763, R849W); test: Kinase inhibition assay (KinaseProfiler, 33P-ATP); type: biochemical; details: read-out: The percentage of the remaining active protein
PRK2(h) = PRK2(h) (Homo sapiens (Human), UniProt Q16513); test: Kinase inhibition assay (KinaseProfiler, 33P-ATP); type: biochemical; details: read-out: The percentage of the remaining active protein
MKK6(h) = MKK6(h) (Homo sapiens (Human), UniProt P52564); test: Kinase inhibition assay (KinaseProfiler, 33P-ATP); type: biochemical; details: read-out: The percentage of the remaining active protein
CaMKI(h) = CaMKI(h) (Homo sapiens (Human), UniProt Q14012); test: Kinase inhibition assay (KinaseProfiler, 33P-ATP); type: biochemical; details: read-out: The percentage of the remaining active protein
CaMKI(h), sequence (Q14012 whole entry): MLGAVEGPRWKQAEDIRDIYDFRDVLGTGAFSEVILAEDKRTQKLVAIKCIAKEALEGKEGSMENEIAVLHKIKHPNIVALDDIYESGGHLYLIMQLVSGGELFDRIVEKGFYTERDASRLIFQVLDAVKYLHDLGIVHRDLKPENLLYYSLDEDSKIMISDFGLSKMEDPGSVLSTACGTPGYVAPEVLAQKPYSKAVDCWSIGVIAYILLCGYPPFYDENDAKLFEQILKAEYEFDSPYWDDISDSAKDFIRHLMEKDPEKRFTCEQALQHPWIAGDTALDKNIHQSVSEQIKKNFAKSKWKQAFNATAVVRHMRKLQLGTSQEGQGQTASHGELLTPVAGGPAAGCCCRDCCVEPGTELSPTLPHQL

[1] = biological target: PI3 Kinase (p110d/p85a)(m) (Mus musculus (Mouse), UniProt O35904); test: Kinase inhibition assay (KinaseProfiler, 33P-ATP); type: biochemical; details: read-out: The percentage of the remaining active protein
ALK6(h) = ALK6(h) (Homo sapiens (Human), UniProt O00238); test: Kinase inhibition assay (KinaseProfiler, 33P-ATP); type: biochemical; details: read-out: The percentage of the remaining active protein
ZR-75-1 = test: Cell proliferation inhibition assay (MTT); type: cell-based; details: Homo sapiens, 72 hours, read-out: Proliferation inhibitory activity IC50
PTK5 = PTK5 (Homo sapiens (Human), UniProt P42685); test: Kinase inhibition assay (KinaseProfiler, 33P-ATP); details: read-out: The percentage of the remaining active protein
PTK5, sequence (P42685 whole entry): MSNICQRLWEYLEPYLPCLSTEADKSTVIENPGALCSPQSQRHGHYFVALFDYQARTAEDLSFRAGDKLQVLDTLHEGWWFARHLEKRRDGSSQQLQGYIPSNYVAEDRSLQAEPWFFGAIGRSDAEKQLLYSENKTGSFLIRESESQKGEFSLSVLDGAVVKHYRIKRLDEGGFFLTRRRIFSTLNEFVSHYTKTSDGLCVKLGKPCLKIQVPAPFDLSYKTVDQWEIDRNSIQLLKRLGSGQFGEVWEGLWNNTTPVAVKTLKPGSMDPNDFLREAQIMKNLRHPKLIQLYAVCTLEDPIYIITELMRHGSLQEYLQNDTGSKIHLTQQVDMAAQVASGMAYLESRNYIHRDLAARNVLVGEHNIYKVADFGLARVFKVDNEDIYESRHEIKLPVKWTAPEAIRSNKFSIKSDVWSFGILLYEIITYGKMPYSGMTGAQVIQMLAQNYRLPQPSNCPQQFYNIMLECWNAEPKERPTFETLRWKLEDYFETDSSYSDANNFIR

[2] = biological target: PI3 Kinase (p110a/p65a)(m) (Mus musculus (Mouse), UniProt P42337); test: Kinase inhibition assay (KinaseProfiler, 33P-ATP); type: biochemical; details: read-out: The percentage of the remaining active protein
DYRK2(h) = DYRK2(h) (Homo sapiens (Human), UniProt Q92630); test: Kinase inhibition assay (KinaseProfiler, 33P-ATP); type: biochemical; details: read-out: The percentage of the remaining active protein
SMMC7721 = test: Cell proliferation inhibition assay (MTT); type: cell-based; details: Homo sapiens, SMMC-7721, 72 hours, read-out: Proliferation inhibitory activity IC50
DCAMKL3(h) = DCAMKL3(h) (Homo sapiens (Human), UniProt Q9C098); test: Kinase inhibition assay (KinaseProfiler, 33P-ATP); type: biochemical; details: read-out: The percentage of the remaining active protein
TAO2 = TAO2 (Homo sapiens (Human), UniProt Q9UL54); test: Kinase inhibition assay (KinaseProfiler, 33P-ATP); type: biochemical; details: TAO2(h), read-out: The percentage of the remaining active protein
TAO3 = TAO3 (Homo sapiens (Human), UniProt Q9H2K8); test: Kinase inhibition assay (KinaseProfiler, 33P-ATP); type: biochemical; details: TAO3(h), read-out: The percentage of the remaining active protein
CLK1(h) = CLK1(h) (Homo sapiens (Human), UniProt P49759); test: Kinase inhibition assay (KinaseProfiler, 33P-ATP); type: biochemical; details: read-out: The percentage of the remaining active protein
CLK1(h), sequence (P49759 whole entry): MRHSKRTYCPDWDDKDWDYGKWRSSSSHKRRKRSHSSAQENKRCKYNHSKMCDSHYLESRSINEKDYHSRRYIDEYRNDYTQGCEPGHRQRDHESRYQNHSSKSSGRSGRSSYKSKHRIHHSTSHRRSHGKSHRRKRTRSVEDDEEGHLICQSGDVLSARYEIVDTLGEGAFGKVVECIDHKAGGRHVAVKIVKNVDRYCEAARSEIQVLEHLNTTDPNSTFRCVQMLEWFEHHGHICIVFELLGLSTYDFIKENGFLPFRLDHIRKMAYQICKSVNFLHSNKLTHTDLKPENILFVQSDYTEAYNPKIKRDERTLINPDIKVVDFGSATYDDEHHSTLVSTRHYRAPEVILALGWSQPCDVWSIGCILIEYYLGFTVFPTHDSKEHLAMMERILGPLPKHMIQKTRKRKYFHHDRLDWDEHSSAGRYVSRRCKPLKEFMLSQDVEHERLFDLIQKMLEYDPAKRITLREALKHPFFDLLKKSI

Aurora-C(h) = Aurora-C(h) (Homo sapiens (Human), UniProt Q9UQB9); test: Kinase inhibition assay (KinaseProfiler, 33P-ATP); type: biochemical; details: read-out: The percentage of the remaining active protein
Aurora-C(h), sequence (Q9UQB9 whole entry): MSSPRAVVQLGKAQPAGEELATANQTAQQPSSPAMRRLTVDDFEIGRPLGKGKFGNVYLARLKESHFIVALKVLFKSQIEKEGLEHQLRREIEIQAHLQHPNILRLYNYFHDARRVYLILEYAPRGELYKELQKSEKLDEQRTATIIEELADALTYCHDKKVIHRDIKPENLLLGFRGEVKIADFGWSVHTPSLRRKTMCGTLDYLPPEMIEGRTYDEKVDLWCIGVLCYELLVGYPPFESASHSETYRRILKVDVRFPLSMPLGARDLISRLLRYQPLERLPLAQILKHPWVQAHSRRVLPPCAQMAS

Abl (M351T)(h) = Abl (M351T)(h) (Homo sapiens (Human), UniProt P00519, M351T); test: Kinase inhibition assay (KinaseProfiler, 33P-ATP); type: biochemical; details: read-out: The percentage of the remaining active protein
Mnk2(h) = Mnk2(h) (Homo sapiens (Human), UniProt Q9HBH9); test: Kinase inhibition assay (KinaseProfiler, 33P-ATP); type: biochemical; details: read-out: The percentage of the remaining active protein
mTOR/FKBP12(h) = mTOR/FKBP12(h) (Homo sapiens (Human), UniProt P42345); test: Kinase inhibition assay (KinaseProfiler, 33P-ATP); type: biochemical; details: read-out: The percentage of the remaining active protein
mTOR/FKBP12(h), sequence (P42345 1362-2549): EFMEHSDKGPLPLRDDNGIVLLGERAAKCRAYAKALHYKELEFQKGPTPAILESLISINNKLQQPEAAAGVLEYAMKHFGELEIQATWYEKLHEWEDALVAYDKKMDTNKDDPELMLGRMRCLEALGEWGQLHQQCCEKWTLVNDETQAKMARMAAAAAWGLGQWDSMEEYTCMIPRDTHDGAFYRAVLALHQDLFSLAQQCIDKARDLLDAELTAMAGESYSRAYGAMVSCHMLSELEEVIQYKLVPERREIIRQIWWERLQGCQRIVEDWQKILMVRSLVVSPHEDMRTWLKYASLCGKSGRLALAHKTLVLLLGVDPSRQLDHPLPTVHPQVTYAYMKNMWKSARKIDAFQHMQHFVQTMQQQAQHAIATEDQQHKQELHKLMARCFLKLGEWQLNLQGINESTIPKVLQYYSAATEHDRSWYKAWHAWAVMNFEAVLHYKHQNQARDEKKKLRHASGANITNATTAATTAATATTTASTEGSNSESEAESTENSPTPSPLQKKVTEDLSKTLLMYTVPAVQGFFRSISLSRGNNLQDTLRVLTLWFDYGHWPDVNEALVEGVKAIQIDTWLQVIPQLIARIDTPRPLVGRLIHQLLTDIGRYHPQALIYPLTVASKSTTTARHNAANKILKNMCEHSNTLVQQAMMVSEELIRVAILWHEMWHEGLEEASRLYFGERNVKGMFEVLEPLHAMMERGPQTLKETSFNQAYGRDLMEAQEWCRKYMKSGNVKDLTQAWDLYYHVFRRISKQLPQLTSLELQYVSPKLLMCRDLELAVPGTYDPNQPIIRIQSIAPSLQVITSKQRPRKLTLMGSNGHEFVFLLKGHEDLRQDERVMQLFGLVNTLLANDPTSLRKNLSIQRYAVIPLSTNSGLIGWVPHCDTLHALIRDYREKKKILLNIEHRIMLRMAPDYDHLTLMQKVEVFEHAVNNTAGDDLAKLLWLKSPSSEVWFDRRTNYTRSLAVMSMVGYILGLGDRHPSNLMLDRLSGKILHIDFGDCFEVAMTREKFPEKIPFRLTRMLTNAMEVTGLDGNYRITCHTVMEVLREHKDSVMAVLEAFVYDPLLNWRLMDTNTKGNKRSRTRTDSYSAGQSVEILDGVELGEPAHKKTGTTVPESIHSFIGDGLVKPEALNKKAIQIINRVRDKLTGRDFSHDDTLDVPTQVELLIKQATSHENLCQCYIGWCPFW

SAPK4(h) = SAPK4(h) (Homo sapiens (Human), UniProt O15264); test: Kinase inhibition assay (KinaseProfiler, 33P-ATP); type: biochemical; details: read-out: The percentage of the remaining active protein
PDGFRβ(h) = PDGFRβ(h) (Homo sapiens (Human), UniProt P09619); test: Kinase inhibition assay (KinaseProfiler, 33P-ATP); type: biochemical; details: read-out: The percentage of the remaining active protein
PAR-1Bα(h) = PAR-1Bα(h) (Homo sapiens (Human), UniProt Q7KZI7); test: Kinase inhibition assay (KinaseProfiler, 33P-ATP); type: biochemical; details: read-out: The percentage of the remaining active protein
PKCμ(h) = PKCμ(h) (Homo sapiens (Human), UniProt Q15139); test: Kinase inhibition assay (KinaseProfiler, 33P-ATP); type: biochemical; details: read-out: The percentage of the remaining active protein
MKK4(m) = MKK4(m) (Mus musculus (Mouse), UniProt P47809); test: Kinase inhibition assay (KinaseProfiler, 33P-ATP); type: biochemical; details: read-out: The percentage of the remaining active protein
MKK4(m), sequence (P47809 whole entry): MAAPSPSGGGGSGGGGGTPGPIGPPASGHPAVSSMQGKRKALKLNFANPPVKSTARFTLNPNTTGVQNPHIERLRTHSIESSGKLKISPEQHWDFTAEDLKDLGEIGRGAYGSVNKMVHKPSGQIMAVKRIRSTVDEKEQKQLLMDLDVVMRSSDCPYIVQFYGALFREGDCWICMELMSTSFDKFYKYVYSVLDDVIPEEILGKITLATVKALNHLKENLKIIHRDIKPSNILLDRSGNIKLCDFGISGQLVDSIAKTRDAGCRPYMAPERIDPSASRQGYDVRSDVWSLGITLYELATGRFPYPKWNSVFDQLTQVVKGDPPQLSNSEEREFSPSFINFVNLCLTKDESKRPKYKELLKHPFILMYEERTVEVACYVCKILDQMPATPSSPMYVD

CK1γ3(h) = CK1γ3(h) (Homo sapiens (Human), UniProt Q9Y6M4); test: Kinase inhibition assay (KinaseProfiler, 33P-ATP); type: biochemical; details: read-out: The percentage of the remaining active protein
CK1γ3(h), sequence (Q9Y6M4 whole entry): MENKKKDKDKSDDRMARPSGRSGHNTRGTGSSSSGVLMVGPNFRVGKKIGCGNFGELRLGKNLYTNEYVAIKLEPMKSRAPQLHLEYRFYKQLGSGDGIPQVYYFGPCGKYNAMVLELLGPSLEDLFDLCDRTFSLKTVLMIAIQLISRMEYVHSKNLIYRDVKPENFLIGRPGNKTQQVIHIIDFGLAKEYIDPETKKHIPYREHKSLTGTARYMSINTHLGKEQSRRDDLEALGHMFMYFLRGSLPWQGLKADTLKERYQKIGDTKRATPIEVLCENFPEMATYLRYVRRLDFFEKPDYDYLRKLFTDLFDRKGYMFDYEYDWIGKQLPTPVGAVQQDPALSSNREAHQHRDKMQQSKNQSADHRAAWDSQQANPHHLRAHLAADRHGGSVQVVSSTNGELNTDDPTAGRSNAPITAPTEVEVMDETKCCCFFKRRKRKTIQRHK

TAO1(h) = TAO1(h) (Homo sapiens (Human), UniProt Q7L7X3); test: Kinase inhibition assay (KinaseProfiler, 33P-ATP); type: biochemical; details: read-out: The percentage of the remaining active protein
Met(Y1248H)(h) = Met(Y1248H)(h) (Homo sapiens (Human), UniProt P08581, Y1248H); test: Kinase inhibition assay (KinaseProfiler, 33P-ATP); type: biochemical; details: read-out: The percentage of the remaining active protein
Mer = Mer (Homo sapiens (Human), UniProt Q12866); test: Kinase inhibition assay (KinaseProfiler, 33P-ATP); type: biochemical; details: Mer(h), read-out: The percentage of the remaining active protein
MINK(h) = MINK(h) (Homo sapiens (Human), UniProt Q8N4C8); test: Kinase inhibition assay (KinaseProfiler, 33P-ATP); type: biochemical; details: read-out: The percentage of the remaining active protein
MINK(h), sequence (Q8N4C8 whole entry): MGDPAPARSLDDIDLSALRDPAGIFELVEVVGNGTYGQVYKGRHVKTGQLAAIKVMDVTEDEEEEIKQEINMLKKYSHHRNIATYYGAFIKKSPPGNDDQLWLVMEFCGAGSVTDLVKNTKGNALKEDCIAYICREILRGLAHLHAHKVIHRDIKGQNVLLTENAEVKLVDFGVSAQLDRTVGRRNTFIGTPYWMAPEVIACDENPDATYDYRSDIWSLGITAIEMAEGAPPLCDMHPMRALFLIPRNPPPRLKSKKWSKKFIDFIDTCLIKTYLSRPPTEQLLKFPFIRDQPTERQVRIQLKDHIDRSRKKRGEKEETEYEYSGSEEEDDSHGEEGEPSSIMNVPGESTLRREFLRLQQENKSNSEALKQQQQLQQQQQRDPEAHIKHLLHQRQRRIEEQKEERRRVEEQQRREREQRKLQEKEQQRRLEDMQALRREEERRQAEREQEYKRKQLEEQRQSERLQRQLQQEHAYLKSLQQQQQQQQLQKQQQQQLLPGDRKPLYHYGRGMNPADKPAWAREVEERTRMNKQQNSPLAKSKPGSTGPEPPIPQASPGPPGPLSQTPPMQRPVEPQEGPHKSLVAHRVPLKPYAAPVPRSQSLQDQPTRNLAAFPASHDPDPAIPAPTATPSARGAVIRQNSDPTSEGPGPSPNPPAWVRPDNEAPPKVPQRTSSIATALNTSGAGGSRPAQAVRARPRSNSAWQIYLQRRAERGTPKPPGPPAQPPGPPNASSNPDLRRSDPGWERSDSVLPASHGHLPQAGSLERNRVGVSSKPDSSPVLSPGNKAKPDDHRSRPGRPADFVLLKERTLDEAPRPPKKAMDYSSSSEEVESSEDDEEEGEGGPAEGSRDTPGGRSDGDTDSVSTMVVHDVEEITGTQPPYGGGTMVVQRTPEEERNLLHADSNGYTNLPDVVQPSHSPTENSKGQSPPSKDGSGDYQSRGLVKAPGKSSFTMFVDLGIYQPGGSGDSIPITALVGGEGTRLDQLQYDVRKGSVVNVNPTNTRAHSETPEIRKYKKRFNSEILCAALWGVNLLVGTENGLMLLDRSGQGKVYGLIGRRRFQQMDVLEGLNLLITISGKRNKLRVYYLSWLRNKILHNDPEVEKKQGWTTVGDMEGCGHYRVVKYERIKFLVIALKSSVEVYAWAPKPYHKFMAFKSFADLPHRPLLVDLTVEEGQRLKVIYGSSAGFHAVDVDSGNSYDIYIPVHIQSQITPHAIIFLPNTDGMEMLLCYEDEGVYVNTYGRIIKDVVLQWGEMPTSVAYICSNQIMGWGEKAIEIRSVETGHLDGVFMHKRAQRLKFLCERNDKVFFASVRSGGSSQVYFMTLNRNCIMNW

IC50 (U87): 5.42 µM
Compound: Cc1ccc(NC(=O)c2cccc(C(F)(F)F)c2)cc1C#Cc1nn(C2CCN(C)CC2)c2ncnc(N)c12 [Compound 31]

remaining activity at 10 µM (ZIPK(h)): 110% | remaining activity at 10 µM (IRAK4(h)): 101% | remaining activity at 10 µM (TGFBR1(h)): 105% | remaining activity at 10 µM (BrSK2(h)): 93% | remaining activity at 10 µM (Abl (H396P)(h)): 1% | remaining activity at 10 µM (CaMKIIδ(h)): 89% | remaining activity at 10 µM (Tie2(R849W)(h)): 0% | remaining activity at 10 µM (PRK2(h)): 97% | remaining activity at 10 µM (MKK6(h)): 43% | remaining activity at 10 µM (CaMKI(h)): 62% | remaining activity at 10 µM [1]: 78% | remaining activity at 10 µM (ALK6(h)): 18% | remaining activity at 10 µM (PTK5): 1% | remaining activity at 10 µM [2]: 94% | remaining activity at 10 µM (DYRK2(h)): 107% | IC50 (SMMC7721): > 10 µM | remaining activity at 10 µM (DCAMKL3(h)): 101% | remaining activity at 10 µM (TAO2): 5% | remaining activity at 10 µM (TAO3): 2% | remaining activity at 10 µM (CLK1(h)): 64% | remaining activity at 10 µM (Aurora-C(h)): 101% | remaining activity at 10 µM (Abl (M351T)(h)): 0% | remaining activity at 10 µM (Mnk2(h)): 96% | remaining activity at 10 µM (mTOR/FKBP12(h)): 119% | remaining activity at 10 µM (SAPK4(h)): 80% | remaining activity at 10 µM (PDGFRβ(h)): 87% | remaining activity at 10 µM (PAR-1Bα(h)): 98% | remaining activity at 10 µM (PKCμ(h)): 91% | remaining activity at 10 µM (MKK4(m)): 49% | remaining activity at 10 µM (CK1γ3(h)): 103% | remaining activity at 10 µM (TAO1(h)): 18% | remaining activity at 10 µM (Met(Y1248H)(h)): 123% | remaining activity at 10 µM (Mer): 0% | remaining activity at 10 µM (MINK(h)): 25%
Compound: Cc1ccc(NC(=O)c2ccc(C)c(C(F)(F)F)c2)cc1C#Cc1nn([C@H]2CC[C@H](O)CC2)c2ncnc(N)c12 [Compound 93]
IC50 (ZR-75-1): ~10 µM
